Measured values as given in patent publication US7674816B2, “Substituted melatonin derivatives, process for their preparation, and methods of use” (Abraxis BioScience, LLC, priority 2003, dated 2010).

Key:
[1] = system: GABAA α-6 site; assay: GABAA alpha 6 site competitive binding (3H-Ro 15-4513); conditions: Conc. 1.0E−4 M, bovine hippocampus
Description: (§1) The binding profile of exemplary inventive compounds to neurotransmitter receptor sites is set forth below in Table 1. The characterization of the receptors, isolation of the membrane, and enzyme assay have been described in detail previously (see, e.g., Cole et al., Life Sci., 35, 1755 (1984), Lawrence et al., J. Neurochem., 45(3), 798 (1985), Sweetnam et al., Mol. Pharmacology, 29, 299 (1986), Zarkovsky et al., Neuropharmacology, 26 (7A), 737 (1987), Li et al., Eur. J. Pharmacology, 413, 63 (2001), and Markela et al., Mol. Pharmacology, 52, 380 (1997)).
(§2) The melatonin binding site on GABAA was defined using a series of competitive binding assays. Frozen bovine hippocampus was thawed and homogenized in 40 volumes of ice-cold 0.32 M sucrose. The suspension was centrifuged at 1000×g for 10 minutes at 4° C. The pellet was washed twice in assay buffer and reacted with radioactive ligand in presence or absence of melatonin at 10^−4 M final concentration. The amount of radioactivity remained on the Whatman filter following filtration of the reaction mix and two washes with assay buffer was determined using a liquid scintillation counter. Inhibition of radioactive ligand binding by melatonin represents the competitive binding of melatonin to the same site as the radioactive ligand. GABAA agonist site, GABAA α-1 site, GABAA α-5 site, GABAA α-6 site, and GABAA Cl channel were assayed using ^3H-GABA, ^3H-flunitrazepam, ^3H-RY80, ^3H-Ro 15-4513, and ^3H-TBOB.

[2] = molecular target: T1, GABAA α-5 site (Bos taurus, UniProt P22300+Q08E50); assay: GABAA alpha 5 site competitive binding (3H-RY80); conditions: bovine hippocampus
T1 construct: Frozen bovine hippocampus was thawed and homogenized in 40 volumes of ice-cold 0.32 M sucrose; from tissue; host or cells: bovine hippocampus membranes (washed pellet)
T1 sequence (Q08E50 32-462): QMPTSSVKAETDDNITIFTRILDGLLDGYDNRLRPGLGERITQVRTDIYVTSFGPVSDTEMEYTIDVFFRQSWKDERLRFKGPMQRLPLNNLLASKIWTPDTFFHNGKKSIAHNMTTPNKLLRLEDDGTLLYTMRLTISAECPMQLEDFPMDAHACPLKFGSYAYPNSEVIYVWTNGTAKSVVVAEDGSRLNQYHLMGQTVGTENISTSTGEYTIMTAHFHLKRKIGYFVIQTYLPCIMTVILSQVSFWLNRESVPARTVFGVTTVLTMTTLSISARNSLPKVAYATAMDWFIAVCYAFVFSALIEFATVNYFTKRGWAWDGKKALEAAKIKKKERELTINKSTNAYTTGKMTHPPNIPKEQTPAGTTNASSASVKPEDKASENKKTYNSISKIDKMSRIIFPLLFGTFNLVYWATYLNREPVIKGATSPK
T1 sequence (P22300 40-475): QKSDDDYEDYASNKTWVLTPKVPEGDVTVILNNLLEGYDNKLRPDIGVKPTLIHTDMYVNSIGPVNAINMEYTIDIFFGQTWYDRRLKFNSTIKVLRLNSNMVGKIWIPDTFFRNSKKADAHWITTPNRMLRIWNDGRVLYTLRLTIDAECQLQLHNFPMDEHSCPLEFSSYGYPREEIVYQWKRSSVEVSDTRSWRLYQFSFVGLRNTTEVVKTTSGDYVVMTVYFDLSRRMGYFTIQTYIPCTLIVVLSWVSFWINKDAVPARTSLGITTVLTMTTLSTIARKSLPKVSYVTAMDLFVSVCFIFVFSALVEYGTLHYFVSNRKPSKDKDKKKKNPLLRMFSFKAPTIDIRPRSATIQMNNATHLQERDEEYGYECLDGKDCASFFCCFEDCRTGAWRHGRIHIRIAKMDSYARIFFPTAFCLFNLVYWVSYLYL
Protocol: Frozen bovine hippocampus was thawed and homogenized in 40 volumes of ice-cold 0.32 M sucrose. The suspension was centrifuged at 1000×g for 10 minutes at 4° C. […] The amount of radioactivity remained on the Whatman filter following filtration of the reaction mix and two washes with assay buffer was determined using a liquid scintillation counter. Inhibition of radioactive ligand binding by melatonin represents the competitive binding of melatonin to the same site as the radioactive ligand.

[3] = system: GABAA α-1 site; assay: GABAA alpha 1 site competitive binding (3H-flunitrazepam); conditions: Conc. 1.0E−4 M, bovine hippocampus
Description: as §1, §2

[4] = system: GABAA Cl channel; assay: GABAA Cl channel, TBOB site competitive binding (3H-TBOB), single concentration; conditions: Conc. 1.0E−4 M, bovine hippocampus
Description: as §1, §2

[5] = system: GABAA Cl channel; assay: as above; conditions: Conc. 1.0E−3 M, bovine hippocampus
[6] = system: GABAA α-6 site; assay: GABAA alpha 6 site competitive binding (3H-Ro 15-4513); conditions: Conc. 1.0E−3 M, bovine hippocampus
[7] = system: GABAA agonist site; assay: GABAA agonist site competitive binding (3H-GABA); conditions: Conc. 1.0E−3 M, bovine hippocampus
Description: as §1, §2

[8] = system: GABAA α-1 site; assay: GABAA alpha 1 site competitive binding (3H-flunitrazepam); conditions: Conc. 1.0E−3 M, bovine hippocampus

Structure (SMILES) | Specific binding, GABAA Alpha 6 site (inhibition of radioactive ligand binding) [1] [%] | Specific binding, GABAA Alpha 5 site (inhibition of radioactive ligand binding) ([2]; Conc. 1.0E−4 M) [%] | Specific binding, GABAA Alpha 1 site (inhibition of radioactive ligand binding) [3] [%] | Specific binding, GABAA Ion Channels Cl−, TBOB site (inhibition of radioactive ligand binding) [4] [%] | Specific binding, GABAA Ion Channels Cl−, TBOB site (inhibition of radioactive ligand binding) [5] [%] | Specific binding, GABAA Alpha 5 site (inhibition of radioactive ligand binding) ([2]; Conc. 1.0E−3 M) [%] | Specific binding, GABAA Alpha 6 site (inhibition of radioactive ligand binding) [6] [%] | Specific binding, GABAA Agonist site (inhibition of radioactive ligand binding) [7] [%] | Specific binding, GABAA Alpha 1 site (inhibition of radioactive ligand binding) [8] [%]
COc1ccc(-c2[nH]c3ccc(OC)cc3c2CCNC(C)=O)cc1 | 6.68 | 7.09 | −8.16 | 108.82 |  |  |  |  | 
COc1cc2c(CCNC(C)=O)c[nH]c2cc1Cl [6-Chloromelatonin] |  |  |  |  | 43.63 | 13.95 | −7.74 | −13.74 | 12.49
